Columns and labels:
Test in all cases: KINOMEscan competition binding
Conditions in all cases: compound 10.0 µM
CASK (human) = CASK (human) (UniProt O14936)
AXL (human) = AXL (human) (UniProt P30530)
CLK1 (human) = CLK1 (human) (UniProt P49759)
[1] = test system: RET (human), P07949 [V804M]
TNK2 (human) = TNK2 (human) (UniProt Q07912)
TAOK2 (human) = TAOK2 (human) (UniProt Q9UL54)
SGK110 (human) = SGK110 (human) (UniProt P0C264)
MAP2K3 (human) = MAP2K3 (human) (UniProt P46734)
CAMK2D (human) = CAMK2D (human) (UniProt Q13557)
MAP2K2 (human) = MAP2K2 (human) (UniProt P36507)
Chain of MAP2K2 (human) (P36507 whole entry, looked up): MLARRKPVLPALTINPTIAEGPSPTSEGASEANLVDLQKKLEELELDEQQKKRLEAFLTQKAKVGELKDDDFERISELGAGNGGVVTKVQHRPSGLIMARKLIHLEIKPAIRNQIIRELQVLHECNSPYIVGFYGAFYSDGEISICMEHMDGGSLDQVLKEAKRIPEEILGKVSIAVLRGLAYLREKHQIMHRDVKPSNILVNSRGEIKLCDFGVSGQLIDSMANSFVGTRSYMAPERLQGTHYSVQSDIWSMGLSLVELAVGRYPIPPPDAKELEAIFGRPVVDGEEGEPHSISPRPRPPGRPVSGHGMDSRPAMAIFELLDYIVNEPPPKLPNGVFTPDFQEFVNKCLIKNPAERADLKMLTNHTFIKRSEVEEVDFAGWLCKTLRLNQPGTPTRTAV

MAPK1 (human) = MAPK1 (human) (UniProt P28482)
[2] = molecular target: TYK2 JH2 pseudokinase (human) (UniProt P29597)
RET (human) = RET (human) (UniProt P07949)
MAP2K1 (human) = MAP2K1 (human) (UniProt Q02750)
CHUK (human) = CHUK (human) (UniProt O15111)
Chain of CHUK (human) (O15111 whole entry, looked up): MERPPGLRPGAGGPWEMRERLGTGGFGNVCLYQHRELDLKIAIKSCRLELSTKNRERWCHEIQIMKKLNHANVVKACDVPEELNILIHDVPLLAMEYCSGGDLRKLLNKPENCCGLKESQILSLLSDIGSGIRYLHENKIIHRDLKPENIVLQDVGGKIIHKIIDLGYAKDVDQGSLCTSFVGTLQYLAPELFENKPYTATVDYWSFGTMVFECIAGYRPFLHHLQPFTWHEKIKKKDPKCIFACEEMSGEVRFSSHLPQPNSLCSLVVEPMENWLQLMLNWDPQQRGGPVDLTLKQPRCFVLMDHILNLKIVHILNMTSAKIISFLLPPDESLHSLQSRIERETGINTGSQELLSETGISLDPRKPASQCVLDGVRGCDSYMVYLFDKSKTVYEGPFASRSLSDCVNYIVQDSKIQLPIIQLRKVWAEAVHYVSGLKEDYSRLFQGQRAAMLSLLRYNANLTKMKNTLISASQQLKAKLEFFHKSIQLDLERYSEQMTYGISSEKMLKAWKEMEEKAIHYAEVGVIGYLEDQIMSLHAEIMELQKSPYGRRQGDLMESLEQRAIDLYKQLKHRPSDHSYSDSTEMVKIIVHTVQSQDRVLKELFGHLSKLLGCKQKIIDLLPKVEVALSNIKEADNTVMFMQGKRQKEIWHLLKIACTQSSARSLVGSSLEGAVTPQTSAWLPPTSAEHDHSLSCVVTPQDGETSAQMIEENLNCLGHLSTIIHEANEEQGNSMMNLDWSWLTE

DYRK1A (human) = DYRK1A (human) (UniProt Q13627)
SRC (human) = SRC (human) (UniProt P12931)
CSNK2A2 (human) = CSNK2A2 (human) (UniProt P19784)
IRAK1 (human) = IRAK1 (human) (UniProt P51617)
VRK2 (human) = VRK2 (human) (UniProt Q86Y07)
CSNK2A1 (human) = CSNK2A1 (human) (UniProt P68400)
Chain of CSNK2A1 (human) (P68400 whole entry, looked up): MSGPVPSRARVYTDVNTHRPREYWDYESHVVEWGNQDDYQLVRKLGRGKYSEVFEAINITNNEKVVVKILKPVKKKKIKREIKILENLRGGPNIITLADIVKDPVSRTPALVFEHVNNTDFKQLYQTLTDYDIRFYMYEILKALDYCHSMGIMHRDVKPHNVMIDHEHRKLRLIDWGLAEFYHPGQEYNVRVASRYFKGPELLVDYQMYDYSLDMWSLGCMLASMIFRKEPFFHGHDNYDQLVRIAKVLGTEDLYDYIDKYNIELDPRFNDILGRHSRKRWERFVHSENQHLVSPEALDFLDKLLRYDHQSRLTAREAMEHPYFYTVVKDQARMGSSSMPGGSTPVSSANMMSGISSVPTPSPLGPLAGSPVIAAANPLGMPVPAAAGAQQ

PAK1 (human) = PAK1 (human) (UniProt Q13153)
MST1R (human) = MST1R (human) (UniProt Q04912)
Chain of MST1R (human) (Q04912 whole entry, looked up): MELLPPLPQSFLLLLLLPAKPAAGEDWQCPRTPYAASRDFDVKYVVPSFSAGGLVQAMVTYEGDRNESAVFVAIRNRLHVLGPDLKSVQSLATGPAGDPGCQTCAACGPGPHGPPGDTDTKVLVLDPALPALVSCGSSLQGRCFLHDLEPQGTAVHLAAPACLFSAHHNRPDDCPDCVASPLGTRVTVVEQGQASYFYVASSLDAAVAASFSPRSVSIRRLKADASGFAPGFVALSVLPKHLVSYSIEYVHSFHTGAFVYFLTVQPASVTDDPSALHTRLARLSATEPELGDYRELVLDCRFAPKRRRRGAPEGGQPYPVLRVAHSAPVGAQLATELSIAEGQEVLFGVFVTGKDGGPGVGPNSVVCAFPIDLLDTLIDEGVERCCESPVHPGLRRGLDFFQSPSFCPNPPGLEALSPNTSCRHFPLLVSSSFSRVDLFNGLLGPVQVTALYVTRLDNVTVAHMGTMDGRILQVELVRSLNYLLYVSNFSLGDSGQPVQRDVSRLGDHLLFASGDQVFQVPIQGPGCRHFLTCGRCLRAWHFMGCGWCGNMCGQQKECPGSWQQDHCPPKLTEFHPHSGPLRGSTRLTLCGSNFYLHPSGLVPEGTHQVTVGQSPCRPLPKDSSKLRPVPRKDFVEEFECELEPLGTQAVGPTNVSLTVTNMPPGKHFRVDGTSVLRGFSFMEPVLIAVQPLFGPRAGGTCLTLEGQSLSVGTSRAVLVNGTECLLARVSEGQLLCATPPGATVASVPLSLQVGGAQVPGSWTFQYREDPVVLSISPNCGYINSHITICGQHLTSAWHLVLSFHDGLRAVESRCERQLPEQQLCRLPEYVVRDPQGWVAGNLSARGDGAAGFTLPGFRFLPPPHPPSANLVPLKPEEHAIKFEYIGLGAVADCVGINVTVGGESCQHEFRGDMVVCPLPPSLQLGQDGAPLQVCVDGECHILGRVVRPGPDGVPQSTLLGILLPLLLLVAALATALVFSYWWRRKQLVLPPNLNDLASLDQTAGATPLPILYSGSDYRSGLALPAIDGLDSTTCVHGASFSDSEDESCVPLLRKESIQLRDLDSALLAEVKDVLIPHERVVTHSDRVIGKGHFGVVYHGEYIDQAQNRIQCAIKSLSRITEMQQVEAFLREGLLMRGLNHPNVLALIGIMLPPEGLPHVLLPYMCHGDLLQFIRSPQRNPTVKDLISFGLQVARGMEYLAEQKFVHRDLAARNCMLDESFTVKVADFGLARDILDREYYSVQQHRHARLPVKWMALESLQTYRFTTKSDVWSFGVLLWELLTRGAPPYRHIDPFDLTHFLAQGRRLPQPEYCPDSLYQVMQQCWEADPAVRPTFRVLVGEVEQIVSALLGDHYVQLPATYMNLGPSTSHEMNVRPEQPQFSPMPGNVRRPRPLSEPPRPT

RIOK3 (human) = RIOK3 (human) (UniProt O14730)
PIM3 (human) = PIM3 (human) (UniProt Q86V86)
DDR2 (human) = DDR2 (human) (UniProt Q16832)
FLT4 (human) = FLT4 (human) (UniProt P35916)
RPS6KA5 KD2 (human) = RPS6KA5 KD2 (human) (UniProt O75582)
MAP3K9 (human) = MAP3K9 (human) (UniProt P80192)
ROCK2 (human) = ROCK2 (human) (UniProt O75116)
EPHA8 (human) = EPHA8 (human) (UniProt P29322)
MARK1 (human) = MARK1 (human) (UniProt Q9P0L2)
Chain of MARK1 (human) (Q9P0L2 whole entry, looked up): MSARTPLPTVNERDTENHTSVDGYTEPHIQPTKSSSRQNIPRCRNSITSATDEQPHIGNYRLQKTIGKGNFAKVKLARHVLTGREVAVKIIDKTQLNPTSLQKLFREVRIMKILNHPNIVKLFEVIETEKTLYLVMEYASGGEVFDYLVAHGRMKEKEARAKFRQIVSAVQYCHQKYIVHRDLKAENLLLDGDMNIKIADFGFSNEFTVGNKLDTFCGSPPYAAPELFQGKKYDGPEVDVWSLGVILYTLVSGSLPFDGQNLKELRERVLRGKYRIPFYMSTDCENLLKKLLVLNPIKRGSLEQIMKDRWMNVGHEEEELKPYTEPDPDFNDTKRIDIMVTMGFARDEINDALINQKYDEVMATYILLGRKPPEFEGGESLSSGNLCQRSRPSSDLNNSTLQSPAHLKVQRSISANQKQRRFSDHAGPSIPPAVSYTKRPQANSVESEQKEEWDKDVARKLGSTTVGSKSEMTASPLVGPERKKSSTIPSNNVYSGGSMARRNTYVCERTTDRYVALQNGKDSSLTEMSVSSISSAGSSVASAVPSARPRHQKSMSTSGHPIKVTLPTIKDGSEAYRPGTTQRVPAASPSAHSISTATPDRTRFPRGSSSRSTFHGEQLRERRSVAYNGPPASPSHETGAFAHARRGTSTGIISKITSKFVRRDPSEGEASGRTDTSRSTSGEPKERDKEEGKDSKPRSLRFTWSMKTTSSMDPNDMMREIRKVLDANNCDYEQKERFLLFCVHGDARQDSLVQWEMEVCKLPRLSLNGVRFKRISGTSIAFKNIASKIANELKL

CSNK1A1 (human) = CSNK1A1 (human) (UniProt P48729)
Chain of CSNK1A1 (human) (P48729 whole entry, looked up): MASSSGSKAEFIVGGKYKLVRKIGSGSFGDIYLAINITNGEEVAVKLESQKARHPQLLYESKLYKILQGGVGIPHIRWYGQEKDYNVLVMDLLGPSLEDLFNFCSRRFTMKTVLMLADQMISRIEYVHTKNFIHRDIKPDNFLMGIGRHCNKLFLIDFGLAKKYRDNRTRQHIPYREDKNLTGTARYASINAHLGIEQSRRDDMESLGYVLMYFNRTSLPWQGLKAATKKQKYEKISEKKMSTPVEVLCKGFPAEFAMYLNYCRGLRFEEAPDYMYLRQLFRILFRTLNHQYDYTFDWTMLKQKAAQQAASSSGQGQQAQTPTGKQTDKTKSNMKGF

[3] = test system: MET (human), P08581 [Y1235D]
LIMK2 (human) = LIMK2 (human) (UniProt P53671)
SRPK1 (human) = SRPK1 (human) (UniProt Q96SB4)
BRSK1 (human) = BRSK1 (human) (UniProt Q8TDC3)
EIF2AK1 (human) = EIF2AK1 (human) (UniProt Q9BQI3)
MAPK12 (human) = MAPK12 (human) (UniProt P53778)

Chain of CLK1 (human) (P49759 whole entry, looked up): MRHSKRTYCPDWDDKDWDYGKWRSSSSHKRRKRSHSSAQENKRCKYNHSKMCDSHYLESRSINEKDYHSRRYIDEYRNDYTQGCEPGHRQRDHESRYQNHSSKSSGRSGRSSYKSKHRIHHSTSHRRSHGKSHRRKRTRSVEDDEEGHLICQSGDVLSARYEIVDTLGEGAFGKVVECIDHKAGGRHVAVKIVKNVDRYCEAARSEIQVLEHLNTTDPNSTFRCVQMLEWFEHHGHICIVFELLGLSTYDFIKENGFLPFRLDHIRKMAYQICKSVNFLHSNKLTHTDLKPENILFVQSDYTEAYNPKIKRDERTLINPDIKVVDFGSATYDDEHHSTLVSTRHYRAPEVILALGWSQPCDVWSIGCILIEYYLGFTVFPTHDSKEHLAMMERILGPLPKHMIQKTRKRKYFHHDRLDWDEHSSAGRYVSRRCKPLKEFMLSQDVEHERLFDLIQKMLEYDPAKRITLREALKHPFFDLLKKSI

Compound | kinase still bound, per cent of control (AXL (human)) [%] | kinase still bound, per cent of control (CLK1 (human)) [%] | kinase still bound, per cent of control (TNK2 (human)) [%] | kinase still bound, per cent of control (TAOK2 (human)) [%] | kinase still bound, per cent of control (SGK110 (human)) [%] | kinase still bound, per cent of control (MAP2K3 (human)) [%] | kinase still bound, per cent of control (CAMK2D (human)) [%] | kinase still bound, per cent of control (MAP2K2 (human)) [%] | kinase still bound, per cent of control (MAPK1 (human)) [%] | kinase still bound, per cent of control [2] [%] | kinase still bound, per cent of control (MAP2K1 (human)) [%] | kinase still bound, per cent of control (CHUK (human)) [%] | kinase still bound, per cent of control (CSNK2A2 (human)) [%] | kinase still bound, per cent of control (IRAK1 (human)) [%] | kinase still bound, per cent of control (VRK2 (human)) [%] | kinase still bound, per cent of control (CSNK2A1 (human)) [%] | kinase still bound, per cent of control (PAK1 (human)) [%] | kinase still bound, per cent of control (RIOK3 (human)) [%] | kinase still bound, per cent of control (PIM3 (human)) [%] | kinase still bound, per cent of control (DDR2 (human)) [%] | further results
COc1cc2ncn(-c3cc(OCc4ccccc4C(F)(F)F)c(C(N)=O)s3)c2cc1OC | 65 | 36 | 54 | 100 | 100 | 78 | 75 | 85 | 86 | 97 | 67 | 86 | 17 | 54 | 87 | 30 | 100 | 4.2 | 63 | 81 | kinase still bound, per cent of control (CASK (human)): 93%; kinase still bound, per cent of control [1]: 62%; kinase still bound, per cent of control (RET (human)): 39%; kinase still bound, per cent of control (DYRK1A (human)): 75%; kinase still bound, per cent of control (SRC (human)): 64%; kinase still bound, per cent of control (MST1R (human)): 100%; kinase still bound, per cent of control (FLT4 (human)): 1.4%; kinase still bound, per cent of control (RPS6KA5 KD2 (human)): 76%; kinase still bound, per cent of control (MAP3K9 (human)): 71%; kinase still bound, per cent of control (ROCK2 (human)): 100%; kinase still bound, per cent of control (EPHA8 (human)): 74%; kinase still bound, per cent of control (MARK1 (human)): 82%; kinase still bound, per cent of control (CSNK1A1 (human)): 60%; kinase still bound, per cent of control [3]: 40%
C[C@@H](Oc1cc(-c2cnn(C3CCNCC3)c2)cnc1N)c1c(Cl)ccc(F)c1Cl | 5.3 | 84 | 2.8 | 0.9 | 3.4 | 42 | 100 | 54 | 100 | 2.3 | 64 | 100 | 55 | 0 | 100 | 65 | 95 | 3.4 | 100 | 0 | kinase still bound, per cent of control (LIMK2 (human)): 4.6%; kinase still bound, per cent of control (SRPK1 (human)): 26%; kinase still bound, per cent of control (BRSK1 (human)): 48%; kinase still bound, per cent of control (DYRK1A (human)): 100%; kinase still bound, per cent of control (SRC (human)): 0.55%; kinase still bound, per cent of control (FLT4 (human)): 100%; kinase still bound, per cent of control (RPS6KA5 KD2 (human)): 95%; kinase still bound, per cent of control (MAP3K9 (human)): 80%; kinase still bound, per cent of control (ROCK2 (human)): 8%; kinase still bound, per cent of control (EPHA8 (human)): 0.2%; kinase still bound, per cent of control (MARK1 (human)): 36%; kinase still bound, per cent of control (CSNK1A1 (human)): 61%
CNC(=O)c1cc(Oc2ccc(NC(=O)Nc3ccc(Cl)c(C(F)(F)F)c3)cc2)ccn1 | 7.8 | 23 | 96 | 1.6 | 94 | 97 | 95 | 86 | 100 | 100 | 100 | 81 | 100 | 70 | 100 | 100 | 62 | 100 | 80 | 14 | kinase still bound, per cent of control (CASK (human)): 90%; kinase still bound, per cent of control (LIMK2 (human)): 57%; kinase still bound, per cent of control [1]: 0%; kinase still bound, per cent of control (SRPK1 (human)): 80%; kinase still bound, per cent of control (BRSK1 (human)): 92%; kinase still bound, per cent of control (RET (human)): 0.05%; kinase still bound, per cent of control (DYRK1A (human)): 100%; kinase still bound, per cent of control (MST1R (human)): 74%; kinase still bound, per cent of control (FLT4 (human)): 0%; kinase still bound, per cent of control (RPS6KA5 KD2 (human)): 100%; kinase still bound, per cent of control (MAP3K9 (human)): 88%; kinase still bound, per cent of control (ROCK2 (human)): 88%; kinase still bound, per cent of control (EPHA8 (human)): 3.9%; kinase still bound, per cent of control (MARK1 (human)): 100%; kinase still bound, per cent of control (CSNK1A1 (human)): 100%; kinase still bound, per cent of control (EIF2AK1 (human)): 57%; kinase still bound, per cent of control [3]: 70%
COCC(=O)NC/C=C/c1ccc2ncnc(Nc3ccc(Oc4ccc(C)nc4)c(C)c3)c2c1 | 68 | 90 | 78 | 100 | 100 | 100 | 100 | 11 | 100 | 24 | 9.4 | 100 | 100 | 100 | 100 | 87 | 81 | 100 | 100 | 100 | kinase still bound, per cent of control (CASK (human)): 100%; kinase still bound, per cent of control (MAPK12 (human)): 100%; kinase still bound, per cent of control (LIMK2 (human)): 100%; kinase still bound, per cent of control (SRPK1 (human)): 100%; kinase still bound, per cent of control (BRSK1 (human)): 100%; kinase still bound, per cent of control (RET (human)): 87%; kinase still bound, per cent of control (SRC (human)): 97%; kinase still bound, per cent of control (MST1R (human)): 100%; kinase still bound, per cent of control (FLT4 (human)): 98%; kinase still bound, per cent of control (RPS6KA5 KD2 (human)): 98%; kinase still bound, per cent of control (MAP3K9 (human)): 74%; kinase still bound, per cent of control (ROCK2 (human)): 100%; kinase still bound, per cent of control (EPHA8 (human)): 98%; kinase still bound, per cent of control (MARK1 (human)): 100%; kinase still bound, per cent of control (CSNK1A1 (human)): 100%; kinase still bound, per cent of control (EIF2AK1 (human)): 100%; kinase still bound, per cent of control [3]: 81%
